The target in data set [1] is human recombinant acetylcholinesterase (Homo sapiens, UniProt P22303). The data set can be described thus: biochemical. Particulars: 25° C., 30 minutes preincubation, 0.3 mM acetylthiocholine, Dixon plot.
The subject of data set [2] is total cholinesterase activity in the brain. The data set can be described thus: Total cholinesterase activity in brain homogenate of rats after i.p. injection. The format is in vivo, Male Wistar rats. Particulars: for ChE inhibition: brain 3 hours after injection, relative to saline treated rats; for tolerability of the injected dose: i.p., male Wistar rats, dose giving a cholinergic behavioral effect with minimal side effects. How it is done:
Animals were decapitated 3 hours after injection and the brains rapidly removed. The brain tissue was diced into small pieces, placed on ice and immediately homogenized with a Polytron PT1200 (Kinematic AG) in 10 ml ice cold Tris with 0.1% Triton-X and protease inhibitors. The protease inhibitors in the extraction buffer were Antipain (10 μM), Aprotinin (5 TIU/mg protein), Bestatin ([…]), Leupeptin (10 μM) and Pepstatin (1 μM). The final dilution of the homogenate in the final assay mixture was 120-fold.
Total cholinesterase activity was determined by a modification of the colorimetric method of Ellmann, et al. (Biochem. Pharmacol., 7:88-95 (1961)), as described above. Hydrolysis of acetylthiocholine was monitored indirectly by measurement of the formation of the conjugate between thiocholine and DTNB. Optical density at 405 nm was recorded during five (5) minutes employinga a microplate spectrophotometer (Polarstar, BMG Labtech), and plotted against time. The initial rates were calculated from the slope of the linear portion of the graph.
Cholinesterase activity was normalized for protein content of the homogenate. Relative cholinesterase activity was calculated as the ratio of normalized cholinesterase activity in a rat treated with a control compound or a carbamoyl ester over normalized cholinesterase activity in saline treated rats.

human recombinant acetylcholinesterase, sequence (P22303 32-614): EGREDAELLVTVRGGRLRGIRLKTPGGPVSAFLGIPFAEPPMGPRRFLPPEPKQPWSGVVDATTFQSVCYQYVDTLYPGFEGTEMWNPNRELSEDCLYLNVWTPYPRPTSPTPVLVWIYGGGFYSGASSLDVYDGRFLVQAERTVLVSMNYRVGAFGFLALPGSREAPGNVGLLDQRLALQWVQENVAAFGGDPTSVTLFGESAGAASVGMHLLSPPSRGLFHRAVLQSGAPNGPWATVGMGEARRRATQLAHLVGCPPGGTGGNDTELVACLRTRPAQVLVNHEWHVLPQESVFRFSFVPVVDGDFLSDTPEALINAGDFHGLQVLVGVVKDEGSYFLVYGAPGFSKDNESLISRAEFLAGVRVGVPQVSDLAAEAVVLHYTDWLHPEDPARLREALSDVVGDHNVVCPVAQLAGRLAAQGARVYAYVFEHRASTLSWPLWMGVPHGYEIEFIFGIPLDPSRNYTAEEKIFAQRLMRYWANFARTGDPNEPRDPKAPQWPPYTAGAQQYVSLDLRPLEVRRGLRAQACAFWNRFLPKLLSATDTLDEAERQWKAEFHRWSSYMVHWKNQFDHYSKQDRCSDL

In general, IC50 refers to the concentration that inhibits the measured activity by half. With `C[C@@H](Cc1ccccc1)NC(=O)Oc1cccc([C@H](C)N(C)C)c1` [Compound 20], the IC50 in data set [1] amounted to 449 nM.

`C[C@H](Cc1ccccc1)N(C)C(=O)Oc1cccc([C@H](C)N(C)C)c1` [Compound 7]: in data set [2] (2 mg/kg i.p.), the ChE inhibition is on record as 38%. For the same compound, the “tolerability of the injected dose” value in data set [2] is on record as “well-tolerated”.

Consider `CCN(C)C(=O)Oc1cccc([C@H](C)N(C)C)c1` [Rivastigmine, reference compound], for which the “tolerability of the injected dose” value in data set [2] was “well-tolerated”.

As to `C[C@H](Cc1ccccc1)N(C)C(=O)Oc1ccc2c(c1)[C@]1(C)CCN(C)[C@@H]1N2C` [Compound 13], the IC50 in data set [1] came out at 5440 nM.

As to `C[C@H](Cc1ccccc1)NC(=O)Oc1ccc2c(c1)[C@]1(C)CCN(C)[C@@H]1N2C` [Compound 14], in data set [1], the IC50 was determined as 253 nM.

In the case of `C[C@H](Cc1ccccc1)NC(=O)Oc1cccc([C@H](C)N(C)C)c1` [Compound 9], in data set [2] (8 mg/kg i.p.), the ChE inhibition is on record as 41%. The “tolerability of the injected dose” value in data set [2] is recorded as “well-tolerated”.

As for `Cc1ccccc1O[C@H](CCN(C)C(=O)Oc1cccc([C@H](C)N(C)C)c1)c1ccccc1` [Compound 5], the IC50 in data set [1] was 460 nM.

Source of the values: US7795307B2, “Carbamoyl esters that inhibit cholinesterase and release pharmacologically active agents” (priority 2003, dated 2010).
